Series [1] addresses T1, Histamine H3 receptor (Homo sapiens, UniProt Q9Y5N1).
Description: Displacement of [3H]-n-alpha-methylhistamine from human histamine H3 receptor homogenate after 60 mins by scintillation counting
In a further series the test system is Liver microsomes. The following applies: human.
Series [2] addresses T2, Histamine H3 receptor (Rattus norvegicus, UniProt Q9QYN8).
Description: Displacement of [3H]-n-alpha-methylhistamine from rat histamine H3 receptor homogenate after 60 mins by scintillation counting
For series [3], the species on record is Homo sapiens. Nature of the series: Selectivity ratio of Ki for human histamine H1 receptor to Ki for human histamine H3 receptor.
A short description of series [4]: AUC in Sprague-Dawley rat at 300 mg/kg, po administered for 14 days. It is filed as ADME, organism-based. Also on record: dose 300 mg/kg, route oral. The note with it: plasma.
The nature of series [5]: in vivo. The note with it: Sprague-Dawley, rat, po.
Description: Cmax in po dosed Sprague-Dawley rat administered for 14 days
Series [6] can be described thus: in vitro. The following applies: human, liver microsomes. (Liver microsomes are vesicles of endoplasmic reticulum, rich in cytochrome P450 enzymes.)
Description: Half life in human liver microsomes
Series [7] can be described thus: in vitro. The note with it: rat, plasma.
Description: Fraction unbound in rat plasma
The conditions of series [8]: human, thle, 24 h.
Description: Toxicity in human THLE cells assessed as drug-induced phospholipid accumulation after 24 hrs by Hoechst staining-based microscopic analysis
Series [9] is described as follows: in vivo. The following applies: Sprague-Dawley, rat, plasma, po.
Description: AUC (0 to 24 hrs) in po dosed Sprague-Dawley rat administered for 14 days
The nature of series [10]: in vivo. The following applies: beagle, dog, plasma, po.
Description: AUC (0 to 24 hrs) in po dosed beagle dog administered for 7 days
The nature of series [11]: in vivo. The note with it: beagle, dog, po.
Description: Cmax in po dosed beagle dog administered for 7 days
The species entered for series [12] is Homo sapiens. Nature of the series: Selectivity ratio of Ki for human histamine H4 receptor to Ki for human histamine H3 receptor.
Series [13] can be described thus: in vivo. The note with it: Sprague-Dawley, rat, po. This is another data set of the same source.
Description: Tmax in po dosed Sprague-Dawley rat administered for 14 days
In series [14] the test system is Rattus norvegicus. The experiment in a line: Toxicity in Sprague-Dawley rat assessed as decrease in body weight at 300 mg/kg, po administered for 14 days. Also on record: dose 300 mg/kg, route oral. It is filed as organism-based. The note with it: in vivo, 336 h.
The nature of series [15]: in vivo. The note with it: Sprague-Dawley, rat, po. This is another data set of the same source.
Description: Oral bioavailability in Sprague-Dawley rat
The nature of series [16]: in vivo. The note with it: Sprague-Dawley, rat, po. This is another data set of the same source.
Description: Toxicity in po dosed Sprague-Dawley rat administered for 14 days
Series [17] is described as follows: in vitro. The note with it: human, plasma.
Description: Fraction unbound in human plasma
For the next series, the system named is MDR1 (human). The experiment in a line: in vitro. The note with it: dog, MDCK-MDR1.
The target in series [18] is T1, Histamine H3 receptor. This is another data set of the same source.
Description: Antagonist activity at human histamine H3 receptor expressed in human HEK293 cells assessed as inhibition of forskolin-induced cAMP release pretreated 10 mins prior forskolin stimulation measured after 4.5 hrs by spectrofluorimetric analysis
Series [19] can be described thus: in vitro. The note with it: human, Caco-2.
Description: Permeability across apical to basolateral side in human Caco2 cells at 2 uM
A short description of series [20]: Ratio of drug uptake in brain to plasma of Sprague-Dawley rat. It is filed as ADME. The following applies: read-out: BPR.
Series [21] relates to Rattus norvegicus. Nature of the series: Toxicity in Sprague-Dawley rat assessed as salivation at >= 100 mg/kg, po administered for 14 days. It is filed as organism-based. Also on record: dose 100 mg/kg, route oral. The note with it: in vivo, 336 h.
Series [22] in a line: in vivo. The note with it: Sprague-Dawley, rat, po. This is another data set of the same source.
Description: Tmax in po dosed Sprague-Dawley rat administered for 4 days
The subject of series [23] is Rattus norvegicus. The experiment in a line: Toxicity in Sprague-Dawley rat assessed as decrease in food intake at 300 mg/kg, po administered for 14 days. It is filed as organism-based. Also on record: dose 300 mg/kg, route oral. The note with it: in vivo, 336 h.
The species named for series [24] is Homo sapiens. Nature of the series: Selectivity ratio of Ki for human histamine H2 receptor to Ki for human histamine H3 receptor.
Series [25] can be described thus: in vivo. The following applies: beagle, dog, po. This is another data set of the same source.
Description: Toxicity in po dosed beagle dog administered for 7 days
The nature of series [26]: in vivo. The note with it: beagle, dog, po. This is another data set of the same source.
Description: Tmax in po dosed beagle dog administered for 7 days
The target in series [27] is T2, Histamine H3 receptor. The source holds these as a separate data set.
Description: Antagonist activity at rat histamine H3 receptor expressed in human HEK293 cells assessed as inhibition of forskolin-induced cAMP release pretreated 10 mins prior forskolin stimulation measured after 4.5 hrs by spectrofluorimetric analysis
The subject of the next series is Canis familiaris. The experiment in a line: Toxicity in beagle dog assessed as convulsion at 30 mg/kg, po administered for 7 days measured on day 3. It is filed as organism-based, Canis lupus familiaris. Also on record: dose 30 mg/kg, route oral. The note with it: in vivo, 168 h.

Values joined by “and” are separate entries in the source; they are usually repeats but may differ in a detail not shown here. Equal entries are not always repeated. Some results are limits rather than exact numbers.

Broadly, the Ki is a dissociation constant, usually derived from enzyme kinetics or from competition with a known ligand. High values mean a looser hold on the target, low ones a stronger hold on the target. A word on the AUC: it is concentration integrated over time. Higher therefore signals more exposure. In general, Cmax refers to the maximum level reached in the sampled fluid or tissue. A word on the half-life: it is how long it takes for the measured level to halve. A low value points to fast loss. As usually defined, the fraction unbound is free concentration divided by total concentration. Low values mean little free substance, high ones much free substance. Usually pKa stands for the pH at which an ionisable group is half protonated. Low values mean a stronger acid or weaker base, high ones a weaker acid or stronger base. A word on the Tmax: it is the time at which the peak concentration occurs. A word on the bioavailability: it is the share of a dose that reaches the circulation, judged against a reference dose that is usually intravenous. A higher bioavailability goes with good availability. A word on the efflux ratio: it is a quotient of directional permeabilities that is used to spot active efflux. The Papp A→B is the apparent permeability from the apical to the basolateral side of a cell layer.

T2 sequence (Q9QYN8 whole entry): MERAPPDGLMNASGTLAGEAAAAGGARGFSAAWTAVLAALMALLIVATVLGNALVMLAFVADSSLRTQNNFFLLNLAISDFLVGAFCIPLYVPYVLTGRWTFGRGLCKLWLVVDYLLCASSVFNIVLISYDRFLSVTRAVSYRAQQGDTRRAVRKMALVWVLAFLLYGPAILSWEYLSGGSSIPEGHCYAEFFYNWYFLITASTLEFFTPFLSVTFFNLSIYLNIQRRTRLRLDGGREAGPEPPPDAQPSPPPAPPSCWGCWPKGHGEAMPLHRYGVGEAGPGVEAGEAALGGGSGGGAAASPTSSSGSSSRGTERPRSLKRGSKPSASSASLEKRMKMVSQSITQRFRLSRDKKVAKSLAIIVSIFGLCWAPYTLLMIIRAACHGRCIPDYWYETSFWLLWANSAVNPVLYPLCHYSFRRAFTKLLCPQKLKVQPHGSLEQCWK
T1 sequence (Q9Y5N1 whole entry): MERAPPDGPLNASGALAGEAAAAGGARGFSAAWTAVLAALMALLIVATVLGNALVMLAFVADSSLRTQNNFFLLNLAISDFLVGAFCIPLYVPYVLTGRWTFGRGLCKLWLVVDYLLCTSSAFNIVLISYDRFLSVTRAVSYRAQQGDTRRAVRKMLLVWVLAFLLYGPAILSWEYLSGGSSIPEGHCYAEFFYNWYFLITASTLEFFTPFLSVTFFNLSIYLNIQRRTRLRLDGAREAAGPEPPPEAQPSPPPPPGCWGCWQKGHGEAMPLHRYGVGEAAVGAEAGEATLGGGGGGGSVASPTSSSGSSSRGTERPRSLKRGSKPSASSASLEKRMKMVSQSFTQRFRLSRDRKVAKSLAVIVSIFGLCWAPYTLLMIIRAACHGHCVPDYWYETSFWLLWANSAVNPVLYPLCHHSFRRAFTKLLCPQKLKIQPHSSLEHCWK
Description for Liver microsomes: Unbound intrinsic clearance in human liver microsomes
Description for MDR1 (human): Efflux ratio of permeability across basal to apical side over apical to basolateral side in dog MDCK cells expressing human MDR1
Description for physchem: Dissociation constant, pKa of the compound

On to `CN(C)Cc1ccc(-c2ccc(CN(C)C)cc2)cc1`, for which the inhibitory constant (Ki) is 1.3 nM at Histamine H3 receptor [1] and 9.3 nM at Histamine H3 receptor [2]. The compound also registered a CL free in the series with Liver microsomes of 219 mL/min/kg.

`CCNC(=O)[C@H]1C[C@@](F)(c2ccc(CN3CCCC3)c(F)c2)C1` [PF-03654746]: the Ratio Ki in the series listed under Homo sapiens [3], in the series listed under Homo sapiens [12] and in the series listed under Homo sapiens [24] was above 1000 throughout. In addition, in series [4], the AUC at 336 h is 189000 ng·h/mL. Besides, in “in vivo [5]”, the Cmax at 336 h was found to be 43.5 µM. In the series “in vitro [6]”, this compound came in with a half-life above 120 min. The Ki at Histamine H3 receptor [1] was 2.3 nM; at Histamine H3 receptor [18], 1.7 nM; on Histamine H3 receptor [2] it was 37 nM; at Histamine H3 receptor [27], 8.9 nM. Further, in the series on Liver microsomes, the CL free was below 5 mL/min/kg. For the same compound, the fraction unbound in “in vitro [7]” came out at 0.7; in “in vitro [17]”, 0.66. This compound gave a pKa in the series “physchem” of 9.2. In [8], this compound yielded an MED of 302.4 µM. Besides, the figures for the AUC at 24 h in “in vivo [9]” and in “in vivo [10]” were 189000 ng·h/mL and 18900 ng·h/mL, respectively. The compound further showed a Cmax at 168 h in the series “in vivo [11]” of 13 µM. Moreover, the Tmax at 336 h in “in vivo [13]” turned out to be 30 min. The Activity result with Rattus norvegicus [14], in the series with Rattus norvegicus [21], in the series on Rattus norvegicus [23] and in the series with Canis familiaris was “Toxic” throughout. For the same compound, in the series “in vivo [15]”, the bioavailability was 25.9%. Moreover, the MTD at 336 h in “in vivo [16]” stood at 30 mg/kg. For the same compound, the efflux ratio with MDR1 (human) turned out to be 1.1. For the same compound, the Papp A→B at 2 µM in “in vitro [19]” was found to be 44.7 ×10⁻⁶ cm/s. Besides, the Kp in [20] was 2.1. Moreover, the time of peak concentration (Tmax) at 96 h in “in vivo [22]” amounted to 30 min. In “in vivo [25]”, this compound gave an MTD at 168 h of at least 15 mg/kg. Moreover, the time of peak concentration (Tmax) at 168 h in “in vivo [26]” was 30 min.

In the case of `CC(C)CNC(=O)[C@H]1C[C@@](F)(c2ccc(CN3CCCC3)c(F)c2)C1` [PF-03654764], the Ratio Ki in the series listed under Homo sapiens [3], in the series listed under Homo sapiens [12] and in the series listed under Homo sapiens [24] was above 1000 each time. Moreover, the Cmax at 336 h in “in vivo [5]” was 23 µM. In addition, in the series “in vitro [6]”, the half-life is above 120 min. The Ki is 1.4 nM on Histamine H3 receptor [1]; 1.2 nM and 1.05 nM on Histamine H3 receptor [18]; 19 nM on Histamine H3 receptor [2]; 7.9 nM on Histamine H3 receptor [27]. In the series with Liver microsomes, this compound had a CL free below 5 mL/min/kg. The figures for the free fraction (fraction unbound) in the series “in vitro [7]” and in the series “in vitro [17]” were 0.56 and 0.34, respectively. The compound also displayed a pKa in the series “physchem” of 9.2. Also, the AUC at 24 h came to 67400 ng·h/mL in the series “in vivo [9]” and 18200 ng·h/mL in the series “in vivo [10]”. Besides, the peak level in “in vivo [11]” (Cmax at 168 h) was 18 µM. Besides, in the series “in vivo [13]”, the time to peak (Tmax) at 336 h amounted to 30 min. Moreover, in the series “in vivo [15]”, the bioavailability stood at 20.2%. Also, the MTD at 336 h in the series “in vivo [16]” was at least 300 mg/kg. Further, the efflux ratio in the series with MDR1 (human) was 0.96. Besides, the Papp A→B at 2 µM in the series “in vitro [19]” was found to be 38.8 ×10⁻⁶ cm/s. In the series “in vivo [22]”, the Tmax at 96 h was found to be 30 min. In addition, in “in vivo [25]”, the MTD at 168 h is at least 15 mg/kg. For the same compound, in “in vivo [26]”, the Tmax at 168 h came out at 30 min.

The values are drawn from ChEMBL document CHEMBL2203251, “Discovery of two clinical histamine H(3) receptor antagonists: trans-N-ethyl-3-fluoro-3-[3-fluoro-4-(pyrrolidinylmethyl)phenyl]cyclobutanecarboxamide (PF-03654746) and trans-3-fluoro-3-[3-fluoro-4-(pyrrolidin-1-ylmethyl)phenyl]-N-(2-methylpropyl)cyclobutanecarboxamide (PF-03654764)” (J Med Chem, 2011).
